The structures appear in SMILES notation.

The subject of this assay is Phosphorylation of STAT6 in human PBMC (CD19+ B cells). In words: Phosphorylated STAT6 (pSTAT6) flow cytometry assay in human PBMC, IL-4 stimulated. It counts as cell-based. The following applies: compound 1 hour, 1 ng/ml IL-4 for 15 minutes, read-out: STAT6 IL4 pSTAT6 assay in PBMC: Average IC50. As to the method: Example 2. Phosphorylated STAT6 (pSTAT6) Flow Cytometry Assay in Human PBMC
Phosphorylation of STAT6 in human PBMC was quantitatively measured using flow cytometry technology. Human PBMC were seeded in 96-well plates with a density of 0.3 to 0.5 million cells per well in 100 μl fresh media. Compounds were then added to the assay plates with a final top concentration of up to 30 μM in a 1:3 dilution series with total of 9 doses. The assay plates were incubated for 1 hour at 37° C. under 5% CO2. The cells were then stimulated with 1 ng/ml of IL-4 (R&D Systems, Cat #6507-IL) for 15 minutes, followed by fixation for 30 minutes at 4° C. Cells were spun down at 350 g for 5 minutes. The supernatant was removed and cells were washed once with FACS buffer. Cells were permeabilized with 90% MeOH/H2O for 30 minutes at 4° C., followed by one wash with FACS buffer. Non-specific binding were blocked with human Fc for 1 hour at 4 C, followed by one wash with FACS buffer. AF488 conjugated pSTAT6 antibody (BD Biosciences, Cat #612600, 1:100 dilution) and PE conjugated CD19 antibody (BD Biosciences, Cat #341103, 1:50 dilution) diluted in 100 μl FACS buffer was added to each well with overnight incubation at 4° C. Cells were then washed once with FACS buffer and resuspended in 200 μl of FACS buffer for flow cytometry to quantify pSTAT6 in CD19+ B cells. The data was analyzed by GraphPad Prism and the dose dependent pSTAT6 inhibition was fit using the four-parameter inhibitor vs. response nonlinear regression.
For orientation: IC50 means the concentration needed to halve the response being measured. For `CN(C)C(=O)c1cc2ccc(C3=CCCN(C(=O)C4(O)CCN(Cc5ccccc5)CC4)C3)cc2[nH]1` [Example I-98], the IC50 was in the range of 10 to 100 µM.
As for `CN(C)C(=O)c1cc2cc(C3=CCCN(C(=O)CC4CCOCC4)C3)ccc2o1` [Example I-255], the IC50 was above 100 µM.
As for `C[C@H]1CCCCN1C(=O)c1cc2ccc(C3=CCCN(C(=O)CCn4ccnn4)C3)cc2[nH]1` (single isomer, unassigned) [Example I-129], the IC50 was above 100 µM.
The value for `CN(C)C(=O)c1cc2ccc(C3=CCCN(C(=O)[C@H]4Cc5ccccc5CN4)C3)cc2[nH]1` [Example I-59] was 1 to 10 µM; that for `CN(C)C(=O)c1cc2cc(C3=CCCN(C(=O)CCc4ccc5c(c4)OCO5)C3)ccc2o1` [Example I-282] was above 100 µM.
The value for `CN(C)C(=O)c1cc2cc(C3=CCCN(C(=O)Cn4ccnc4)C3)ccc2o1` [Example I-311] was above 100 µM.
Turning to `CN(C)C(=O)c1cc2cc(C3=CCCN(C(=O)Cc4n[nH]c5ccccc45)C3)ccc2o1` [Example I-302], the half-maximal inhibitory concentration (IC50) is above 100 µM.
The value for `Cc1ccccc1OCc1ccccc1C(=O)N1CCC=C(c2ccc3cc(C(=O)N(C)C)[nH]c3c2)C1` [Example I-106] was 1 to 10 µM.
To `CN(C)C(=O)c1cc2ccc(C3=CCCN(C(=O)C4CCCS4(=O)=O)C3)cc2[nH]1` (stereo not shown) [Example I-40] belongs 10 to 100 µM; to `CO[C@@H](C(=O)N1CCC=C(c2ccc3cc(C(=O)N(C)C)[nH]c3c2)C1)c1ccccc1` [Example I-50], 10 to 100 µM; to `CN(C)C(=O)c1nc2ccc(C3=CCCN(C(=O)CCn4ccnn4)C3)cc2o1` [Example I-226], above 100 µM.
Turning to `COC(=O)C1CCC(c2ccc3oc(C(=O)N(C)C)cc3c2)CN1C(=O)CCn1ccnn1` (mixture of isomers) [Example I-1], the IC50 is above 100 µM.
The value for `CN(C)C(=O)c1cc2ccc(C3=CCCN(C(=O)CCc4ccccn4)C3)cc2[nH]1` [Example I-212] was 10 to 100 µM; that for `CN(C)C(=O)c1cc2cc(C3=CCCN(C(=O)CCc4cncnc4)C3)ccc2o1` [Example I-272] was above 100 µM; that for `CN(C)C(=O)c1cc2ccc(C3=CCCN(C(=O)Cn4ccnn4)C3)cc2[nH]1` [Example I-37] was 10 to 100 µM.
The value for `CN(C)C(=O)c1cc2cc(C3=CCCN(C(=O)CCc4ccnnc4)C3)ccc2o1` [Example I-225] was above 100 µM; that for `CN(C)C(=O)c1cc2ccc(C3=CCCN(C(=O)c4cccnc4CS(C)(=O)=O)C3)cc2[nH]1` [Example I-69] was above 100 µM.
As to `O=C(CCn1ccnn1)N1CCC=C(c2ccc3oc(C(=O)N4CCCCC4)cc3c2)C1` [Example I-128], the IC50 lay within 10 to 100 µM.
The value for `CC(=O)N1CCc2ccccc2[C@H]1C(=O)N1CCC=C(c2ccc3oc(C(=O)N(C)C)cc3c2)C1` (single isomer, unassigned) [Example I-176] was above 100 µM; that for `CN(C)C(=O)c1cc2cc(C3=CCCN(C(=O)CCn4ccc5ccccc54)C3)ccc2o1` [Example I-264] was above 100 µM.
For `CN(C)C(=O)c1cc2ccc(C3=CCCN(C(=O)C4CC4F)C3)cc2[nH]1` (stereo not shown) [Example I-322], the IC50 was in the range of 10 to 100 µM.
The value for `CN(C)C(=O)c1cc2ccc(C3=CCCN(C(=O)CCc4cccc(C#N)c4)C3)cc2[nH]1` [Example I-63] was above 100 µM; that for `CN(C)C(=O)c1cc2cc(C3=CCCN(C(=O)Cc4cnc5ccccn45)C3)ccc2o1` [Example I-276] was above 100 µM; that for `CNC1(C(=O)N2CCC=C(c3ccc4oc(C(=O)N(C)C)cc4c3)C2)CCc2ccccc2C1` (stereo not shown) [Example I-5] was 10 to 100 µM.
The value for `CN(C)C(=O)c1nc2cc(C3=CCCN(C(=O)CCn4ccnn4)C3)ccc2s1` [Example I-192] was above 100 µM; that for `CN(C)C(=O)c1cc2c(F)c(C3=CCCN(C(=O)CCn4ccnn4)C3)ccc2o1` [Example I-323] was 0.1 to 1 µM; that for `O=C(CCn1ccnn1)N1CCC=C(c2ccc3cc(-c4ccccn4)[nH]c3c2)C1` [Example I-119] was above 100 µM.
To `CN(C)C(=O)c1cc2ccc(C3=CCCN(C(=O)C4CC4F)C3)cc2[nH]1` (stereo not shown) [Example I-25] belongs above 100 µM.
As to `CN(C)C(=O)c1cc2cc(C3=CCCN(C(=O)Cc4ncccn4)C3)ccc2o1` [Example I-249], the IC50 is above 100 µM.
With `CCCN(C)C(=O)c1cc2cc(C3=CCCN(C(=O)CCn4ccnn4)C3)ccc2o1` [Example I-235], the IC50 was above 100 µM.
To `CN(C)C(=O)c1cc2ccc(C3=CCCN(C(=O)c4ccc5c(c4)OCC(=O)N5)C3)cc2[nH]1` [Example I-132] belongs above 100 µM.
To `CN(C)C(=O)c1cc2cc(C3=CCCN(C(=O)CCc4ncns4)C3)ccc2o1` [Example I-165] belongs above 100 µM.
To `CN(C)C(=O)c1cc2ccc(C3=CCCN(C(=O)[C@@H]4C[C@H]4c4ccc(Br)cc4)C3)cc2[nH]1` [Example I-56] belongs 10 to 100 µM; to `O=C(CCn1ccnn1)N1CCC=C(c2ccc3occc3c2)C1` [Example I-278], above 100 µM.
On to `CN(C)C(=O)c1cc2cc(C3=CCCN(C(=O)Cc4ccccc4)C3)ccc2o1` [Example I-283], for which the IC50 is above 100 µM.
To `CN(C)C(=O)c1cc2cc(C3=CCCN(C(=O)Cc4cnccn4)C3)ccc2o1` [Example I-246] belongs above 100 µM; to `CC(=O)c1cc(C(=O)N2CCC=C(c3ccc4cc(C(=O)N(C)C)[nH]c4c3)C2)n[nH]1` [Example I-49], 10 to 100 µM.
The value for `CN(C)C(=O)c1cc2ccc(C3=CCCN(C(=O)Cc4cccnc4O)C3)cc2[nH]1` [Example I-257] was above 100 µM.
As to `CN(C)C(=O)c1cc2ccc(C3=CCCN(C(=O)Cn4cncn4)C3)cc2[nH]1` [Example I-36], the half-maximal inhibitory concentration (IC50) lay in the range of 10 to 100 µM.
Consider `CN(C)C(=O)c1cc2ccc(C3=CCCN(C(=O)C4(O)CCCC4)C3)cc2[nH]1` [Example I-32], for which the IC50 lay in the range of 10 to 100 µM.
With `CN(C)C(=O)c1cc2ccc(C3=CCCN(C(=O)C4(O)CC4)C3)cc2[nH]1` [Example I-27], the IC50 is above 100 µM.
To `CN(C)C(=O)c1cc2ccc(C3=CCCN(C(=O)CNC(=O)c4cccc(C(F)(F)F)c4)C3)cc2[nH]1` [Example I-101] belongs above 100 µM; to `CN(C)C(=O)c1cc2cc(C3=CCCN(C(=O)CCc4nncc5ccccc45)C3)ccc2o1` [Example I-168], above 100 µM.
The value for `CCOC(=O)N(CC(=O)N1CCC=C(c2ccc3cc(C(=O)N(C)C)[nH]c3c2)C1)Cc1ccco1` [Example I-81] was above 100 µM; that for `CNc1ccc(-c2cc(C3=CCCN(C(=O)CCn4ccnn4)C3)cc3[nH]c(C(=O)N(C)C)cc23)nc1` [Example I-116] was 0.1 to 1 µM.
For `CN(C)C(=O)c1cc2ccc(C3=CCCN(C(=O)CCc4nnco4)C3)cc2[nH]1` [Example I-18], the IC50 is above 100 µM.
For the compound `CN(C)C(=O)c1cc2ccc(C3=CCCN(C(=O)C4NCCc5ccccc54)C3)cc2[nH]1` (stereo not shown) [Example I-60], the half-inhibitory concentration (IC50) is above 100 µM.
On to `CN(C)C(=O)c1cc2ccc(C3=CCCN(C(=O)C4(c5ccc(Cl)cc5)CC(O)C4)C3)cc2[nH]1` (stereo not shown) [Example I-78], for which the IC50 is above 100 µM.
The value for `CN(C)C(=O)c1cc2ccc(C3=CCCN(C(=O)CCC(=O)O)C3)cc2[nH]1` [Example I-112] was above 100 µM.
To `COC(=O)CCC#Cc1cccc2c1CC(C(=O)N1CCC=C(c3ccc4oc(C(=O)N(C)C)cc4c3)C1)N(C=O)C2` (stereo not shown) [Example I-175] belongs 1 to 10 µM.
As to `CN(C)C(=O)c1cc2cc(C3=CCCN(C(=O)CCc4ccccn4)C3)ccc2o1` [Example I-268], the IC50 was above 100 µM.
Consider `CCC(=O)N1Cc2ccccc2CC1C(=O)N1CCC=C(c2ccc3oc(C(=O)N(C)C)cc3c2)C1` (stereo not shown) [Example I-189], for which the IC50 was above 100 µM.
The value for `CCNC(Cn1ccnn1)C(=O)N1CCC=C(c2ccc3oc(C(=O)N(C)C)cc3c2)C1` (stereo not shown) [Example I-153] was above 100 µM; that for `CN(C)C(=O)c1cc2ccc(C3=CCCN(C(=O)C(O)Cc4ccccc4)C3)cc2[nH]1` (stereo not shown) [Example I-51] was 10 to 100 µM; that for `CN(C)C(=O)c1cc2ccc(C3=CCCN(C(=O)CCc4nn[nH]n4)C3)cc2[nH]1` [Example I-15] was 10 to 100 µM.
`CN(C)C(=O)c1cc2ccc(C3=CCCN(C(=O)C4COCC(=O)N4Cc4ccccc4)C3)cc2[nH]1` (stereo not shown) [Example I-93]: the half-maximal inhibitory concentration (IC50) lay in the range of 10 to 100 µM.
To `CN(C)C(=O)c1cc2cc(C3=CCCN(C(=O)Cc4nc5ccccc5o4)C3)ccc2o1` [Example I-292] belongs above 100 µM; to `CN(C)C(=O)c1cc2ccc(C3=CCCN(C(=O)CCn4ncc5cc(Cl)ncc54)C3)cc2[nH]1` [Example I-80], above 100 µM.
As for `CC1CCCN(C(=O)c2cc3ccc(C4=CCCN(C(=O)CCn5ccnn5)C4)cc3[nH]2)C1` (stereo not shown) [Example I-126], the IC50 is above 100 µM.
The value for `CN(C)C(=O)c1cc2cc(C3=CCCN(C(=O)CCc4cnccn4)C3)ccc2o1` [Example I-216] was above 100 µM; that for `CN(C)C(=O)c1cc2ccc(C3=CCCN(C(=O)CC(c4ccccc4)c4ccccc4)C3)cc2[nH]1` [Example I-91] was 10 to 100 µM.

For the origin of these results see patent US20250214977A1, “STAT6 INHIBITORS AND USES THEREOF” (Kymera Therapeutics, Inc., priority 2024, published 2025).
